Laboratory results taken from PubChem BioAssay (NCI).
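1) Cells in 96-well plates. 2) Compound, 48 h, 5 concentrations. 3) Linear interpolation between surrounding doses. 4) Unreached endpoint = highest concentration. Abbreviation: GI50, concentration required for 50% inhibition of growth. The concentration for full growth arrest is given as TGI.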

What was measured:
Test in all cases: DTP human tumour cell line panel, 48 h
[1] = test system: HOP-62 NSCLC
[2] = test system: TK-10 renal
[3] = test system: SK-MEL-5 melanoma
[4] = test system: SK-MEL-2 melanoma
[5] = test system: SN12C renal
[6] = test system: HT29 colon
[7] = test system: OVCAR-4 ovarian
[8] = test system: SF-539 CNS
[9] = test system: 786-0 renal
[10] = test system: PC-3 prostate
[11] = test system: MDA-N
[12] = test system: MALME-3M melanoma
[13] = test system: NCI-H23 lung
[14] = test system: SR leukemia
[15] = test system: SNB-19 CNS
[16] = test system: MCF7 breast
[17] = test system: HL-60(TB) leukemia
[18] = test system: NCI/ADR-RES ovarian
[19] = test system: SF-295 CNS
[20] = test system: A498 renal
[21] = test system: UACC-62 melanoma
[22] = test system: U251 CNS
[23] = test system: HOP-92 NSCLC
[24] = test system: UACC-257 melanoma
[25] = test system: IGROV1 ovarian
[26] = test system: NCI-H522 lung
[27] = test system: T-47D breast
[28] = test system: A549 NSCLC
[29] = test system: MDA-MB-435
[30] = test system: UO-31 renal
[31] = test system: NCI-H460 lung
[32] = test system: HCC-2998 colon
[33] = test system: NCI-H226 lung
[34] = test system: HS 578T breast
[35] = test system: K-562 leukemia
[36] = test system: MDA-MB-231 breast
[37] = test system: SK-MEL-28 melanoma
[38] = test system: LOX IMVI melanoma
[39] = test system: SF-268 CNS
[40] = test system: OVCAR-3 ovarian
[41] = test system: CCRF-CEM leukemia
[42] = test system: SNB-75 CNS
[43] = test system: DU-145 prostate
[44] = test system: CAKI-1 renal
[45] = test system: MOLT-4 leukemia
[46] = test system: KM12 colon
[47] = test system: RPMI-8226 leukemia
[48] = test system: EKVX NSCLC
[49] = test system: SW-620 colon
[50] = test system: BT-549 breast
[51] = test system: COLO 205 colon
[52] = test system: SK-OV-3 ovarian
[53] = test system: RXF 393 renal
[54] = test system: HCT-15 colon
[55] = test system: HCT-116 colon
[56] = test system: OVCAR-8 ovarian
[57] = test system: OVCAR-5 ovarian
[58] = test system: ACHN renal
[59] = test system: M14 melanoma
[60] = test system: KM20L2 colon

CC(C)c1ccc2c(c1)CCC1C(C)(CN)CCCC21C (stereo unspecified)
TGI [1]: 3140 nM | TGI [2]: 3080 nM | TGI [3]: 3170 nM | TGI [4]: 3150 nM | TGI [5]: 3160 nM | TGI [6]: 2390 nM | TGI [7]: 2720 nM | TGI [8]: 3360 nM | TGI [9]: 2890 nM | TGI [10]: 3120 nM | TGI [11]: 2860 nM | TGI [12]: 2800 nM | TGI [13]: 3360 nM | TGI [14]: 2990 nM | TGI [15]: 2960 nM | TGI [16]: 2820 nM | TGI [17]: 3090 nM | TGI [18]: 3610 nM | TGI [19]: 3340 nM | TGI [20]: 2780 nM | TGI [21]: 3140 nM | TGI [22]: 2830 nM | TGI [23]: 2970 nM | TGI [24]: 3030 nM | TGI [25]: 2930 nM | TGI [26]: 3360 nM | TGI [27]: 3300 nM | TGI [28]: 3370 nM | TGI [29]: 2890 nM | TGI [30]: 2660 nM | TGI [31]: 2600 nM | TGI [32]: 485 nM | TGI [33]: 3400 nM | TGI [34]: 3570 nM | TGI [35]: 3010 nM | TGI [36]: 2950 nM | TGI [37]: 3110 nM | TGI [38]: 2990 nM | TGI [39]: 3220 nM | TGI [40]: 3260 nM | TGI [41]: 3920 nM | TGI [42]: 3190 nM | TGI [43]: 3330 nM | TGI [44]: 2960 nM | TGI [45]: 3610 nM | TGI [46]: 3340 nM | TGI [47]: 4300 nM | TGI [48]: 3400 nM | TGI [49]: 2900 nM | TGI [50]: 3430 nM | TGI [51]: 1430 nM | TGI [52]: 3980 nM | TGI [53]: 2980 nM | TGI [54]: 3170 nM | TGI [55]: 2930 nM | TGI [56]: 3400 nM | TGI [57]: 3330 nM | TGI [58]: 3090 nM | TGI [59]: 3100 nM

O=C([CH-]C(=O)c1ccccc1)c1ccccc1.O=C([CH-]C(=O)c1ccccc1)c1ccccc1.[CH2-]CCC.[CH2-]CCC.[Sn+4]
GI50 [1]: 1950 nM | TGI [1]: 3410 nM | GI50 [2]: 380 nM | TGI [2]: 1110 nM | GI50 [3]: 250 nM | TGI [3]: 1210 nM | GI50 [4]: 223 nM | TGI [4]: 883 nM | GI50 [5]: 509 nM | TGI [5]: 1750 nM | GI50 [8]: 587 nM | TGI [8]: 1940 nM | GI50 [9]: 313 nM | TGI [9]: 1350 nM | GI50 [60]: 1570 nM | TGI [60]: 3110 nM | GI50 [12]: 271 nM | TGI [12]: 1350 nM | GI50 [15]: 441 nM | TGI [15]: 1670 nM | GI50 [17]: 169 nM | TGI [17]: 606 nM | GI50 [19]: 1120 nM | TGI [19]: 2350 nM | GI50 [20]: 369 nM | TGI [20]: 1500 nM | GI50 [21]: 558 nM | TGI [21]: 1830 nM | GI50 [22]: 450 nM | TGI [22]: 1560 nM | GI50 [25]: 1210 nM | TGI [25]: 2790 nM | GI50 [26]: 29.3 nM | TGI [26]: 130 nM | GI50 [28]: 1820 nM | TGI [28]: 4120 nM | GI50 [30]: 1080 nM | TGI [30]: 2290 nM | GI50 [31]: 1760 nM | TGI [31]: 4140 nM | GI50 [32]: 519 nM | TGI [32]: 1920 nM | GI50 [33]: 260 nM | TGI [33]: 938 nM | GI50 [35]: 150 nM | TGI [35]: 746 nM | GI50 [38]: 405 nM | TGI [38]: 1590 nM | GI50 [39]: 458 nM | TGI [39]: 1860 nM | GI50 [40]: 758 nM | TGI [40]: 2130 nM | GI50 [42]: 1040 nM | TGI [42]: 2290 nM | GI50 [44]: 67 nM | TGI [44]: 462 nM | GI50 [45]: 253 nM | TGI [45]: 754 nM | GI50 [46]: 728 nM | TGI [46]: 2280 nM | GI50 [47]: 110 nM | TGI [47]: 334 nM | GI50 [48]: 1170 nM | TGI [48]: 2700 nM | GI50 [49]: 133 nM | TGI [49]: 325 nM | GI50 [51]: 310 nM | TGI [51]: 1230 nM | GI50 [53]: 128 nM | TGI [53]: 416 nM | GI50 [54]: 636 nM | TGI [54]: 2140 nM | GI50 [55]: 917 nM | TGI [55]: 2280 nM | GI50 [56]: 939 nM | TGI [56]: 2460 nM | GI50 [57]: 2060 nM | TGI [57]: 3510 nM | GI50 [58]: 457 nM | TGI [58]: 1600 nM | GI50 [59]: 394 nM | TGI [59]: 1590 nM
